Patent publication US8927500B2, “Peptidomimetic macrocycles” (Aileron Therapeutics, Inc., priority 2012, dated 2015)
Like-named read-outs stand apart in the source and are kept apart here. Where a SMILES comes first, the peptide text is derived from it. Bridges are numbered along the chain shown (N, C = ends). [ ]: non-standard residue; d: D form. The star is where a group is joined. Benzoyl(4-F) = O=C(c1ccc(F)cc1)*; R8 = C=CCCCCCC[C@@](C)(N)C(=O)O; Cba = N[C@@H](CC1CCC1)C(=O)O; S5 = C=CCCC[C@](C)(N)C(=O)O; Aib = CC(C)(N)C(=O)O; Sar = CNCC(=O)O

Assays:
[1] = target: MDM2 (Homo sapiens, UniProt Q00987); test: Competitive fluorescence polarization assay for MDM2; assay type: binding; settings: competitive FP assay, MDM2
Procedure: Dilute 1 mM (in 100% DMSO) of FAM labeled linear peptide with DMSO to 100 μM (dilution 1:10). Then, dilute from 100 μM to 10 μM with water (dilution 1:10) and then dilute with FP buffer from 10 μM to 40 nM (dilution 1:250). This is the working solution which will be a 10 nM concentration in well (dilution 1:4). […] Then, dilute from 5 mM to 500 μM with H2O (dilution 1:10) and then dilute with FP buffer from 500 μM to 20 μM (dilution 1:25).
Dilute 1 mM (in 100% DMSO) of FAM labeled linear peptide with DMSO to 100 μM (dilution 1:10). Then, dilute from 100 μM to 10 μM with water (dilution 1:10) and then dilute with FP buffer from 10 μM to 40 nM (dilution 1:250). This is the working solution which will be a 10 nM concentration in well (dilution 1:4). […] Dilute 10 mM (in 100% DMSO) with DMSO to 5 mM (dilution 1:2). Then, dilute from 5 mM to 500 μM with H2O (dilution 1:10) and then dilute with FP buffer from 500 μM to 20 μM (dilution 1:25). […] Transfer 10 μl of serial diluted unlabeled peptides to each well which is filled with 20 μl of 300 nM of protein. • 7. Add 10 μl of 10 nM (4×) of FAM labeled peptide into each well and incubate for 3 hr to read.

[2] = target: T1, MDMX (Homo sapiens, UniProt O15151); test: Competitive fluorescence polarization assay for MDMX; assay type: binding; settings: competitive FP assay
T1 sequence (O15151 1-125): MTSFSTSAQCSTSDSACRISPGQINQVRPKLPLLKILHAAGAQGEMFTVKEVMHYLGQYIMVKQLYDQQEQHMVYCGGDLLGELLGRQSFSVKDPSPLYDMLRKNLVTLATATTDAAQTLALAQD

Chain of MDM2 (Q00987 1-125): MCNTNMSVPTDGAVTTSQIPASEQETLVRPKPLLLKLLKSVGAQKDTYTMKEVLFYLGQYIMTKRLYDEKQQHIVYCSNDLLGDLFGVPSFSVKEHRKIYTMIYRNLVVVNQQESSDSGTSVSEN

SMILES | Ki ([1]; read-out: Ki (MDM2)) [nM] | Ki ([2]; read-out: Ki (MDMX)) [nM] | Ki ([1]; Ki (MDM2)) [nM] | Ki ([2]; Ki (MDMX)) [nM]
CC(=O)N[C@@H](CC(C)C)C(=O)N[C@H](C(=O)N[C@@H](C)C(=O)N[C@]1(C)CCCCCCC=CCCC[C@@](C)(C(=O)N[C@@H](C)C(=O)N[C@@H](C)C(=O)N[C@@H](C)C(=O)N[C@@H](C)C(=O)N[C@@H](C)C(=O)N[C@H](C)C(N)=O)NC(=O)[C@H](CC(C)C)NC(=O)[C@H](CCC(N)=O)NC(=O)[C@H](C)NC(=O)[C@H](Cc2c[nH]c3ccccc23)NC(=O)[C@H](Cc2ccc(O)cc2)NC(=O)[C@H](CCC(=O)O)NC1=O)[C@@H](C)O [compound 560] (Ac-LTA[R8]EYWAQL[S5]AAAAA[dA]-NH2; staple 4-11) | – | – | > 1000 | > 1000
CC(=O)N[C@@H](CC(C)C)C(=O)N[C@H](C(=O)N[C@@H](Cc1ccccc1)C(=O)N[C@]1(C)CCCCCCC=CCCC[C@@](C)(C(=O)N[C@@H](C)C(=O)N[C@@H](C)C(=O)N[C@@H](C)C(=O)N[C@@H](C)C(=O)N[C@@H](C)C(=O)N[C@H](C)C(N)=O)NC(=O)[C@H](CC(C)C)NC(=O)[C@H](CCC(N)=O)NC(=O)C(C)(C)NC(=O)[C@H](Cc2c[nH]c3ccccc23)NC(=O)[C@H](Cc2ccc(O)cc2)NC(=O)[C@H](CCC(=O)O)NC1=O)[C@@H](C)O [compound 561] (Ac-LTF[R8]EYW[Aib]QL[S5]AAAAA[dA]-NH2; staple 4-11) | – | – | < 10 | 10 to 100
CC(=O)N[C@@H](CC(C)C)C(=O)N[C@H](C(=O)N[C@@H](Cc1ccccc1)C(=O)N[C@]1(C)CCCCCCC=CCCC[C@@](C)(C(=O)N[C@@H](C)C(=O)N(C)CC(=O)N[C@@H](C)C(=O)N[C@@H](C)C(=O)N[C@@H](C)C(=O)N[C@H](C)C(N)=O)NC(=O)[C@H](CC(C)C)NC(=O)[C@H](CCC(N)=O)NC(=O)[C@H](C)NC(=O)[C@H](Cc2c[nH]c3ccccc23)NC(=O)[C@H](Cc2ccc(O)cc2)NC(=O)[C@H](CCC(=O)O)NC1=O)[C@@H](C)O [compound 574] (Ac-LTF[R8]EYWAQL[S5]A[Sar]AAA[dA]-NH2; staple 4-11) | < 10 | 10 to 100 | – | –
CC(=O)N[C@@H](CC(C)C)C(=O)N[C@H](C(=O)N[C@@H](Cc1ccccc1)C(=O)N[C@]1(C)CCCCCCC=CCCC[C@@](C)(C(=O)N[C@@H](C)C(=O)N[C@@H](C)C(=O)N[C@@H](C)C(=O)N[C@H](C)C(N)=O)NC(=O)[C@H](CC(C)C)NC(=O)[C@H](CCC(N)=O)NC(=O)[C@H](C)NC(=O)[C@H](Cc2c[nH]c3ccccc23)NC(=O)[C@H](Cc2ccc(O)cc2)NC(=O)[C@H](CCC(=O)O)NC1=O)[C@@H](C)O [compound 586] (Ac-LTF[R8]EYWAQL[S5]AAA[dA]-NH2; staple 4-11) | < 10 | 10 to 100 | – | –
CC(=O)N[C@@H](CC(C)C)C(=O)N[C@H](C(=O)N[C@@H](Cc1ccccc1)C(=O)N[C@]1(C)CCCCCCC=CCCC[C@@](C)(C(=O)N[C@@H](C)C(=O)N[C@@H](C)C(=O)N[C@H](C)C(N)=O)NC(=O)[C@H](CC(C)C)NC(=O)[C@H](CCC(N)=O)NC(=O)[C@H](C)NC(=O)[C@H](Cc2c[nH]c3ccccc23)NC(=O)[C@H](Cc2ccc(O)cc2)NC(=O)[C@H](CCC(=O)O)NC1=O)[C@@H](C)O [compound 587] (Ac-LTF[R8]EYWAQL[S5]AA[dA]-NH2; staple 4-11) | < 10 | < 10 | – | –
CC(=O)N[C@@H](CC(C)C)C(=O)N[C@H](C(=O)N[C@@H](Cc1ccccc1)C(=O)N[C@]1(C)CCCCCCC=CCCC[C@@](C)(C(=O)N[C@@H](CO)C(=O)O)NC(=O)[C@H](CC2CCC2)NC(=O)[C@H](CCC(N)=O)NC(=O)[C@H](C)NC(=O)[C@H](Cc2c[nH]c3ccccc23)NC(=O)[C@H](Cc2ccc(O)cc2)NC(=O)[C@H](CCC(=O)O)NC1=O)[C@@H](C)O [compound 594] (Ac-LTF[R8]EYWAQ[Cba][S5]S-OH; staple 4-11) | < 10 | < 10 | – | –
CC(C)C[C@H](NC(=O)c1ccc(F)cc1)C(=O)N[C@H](C(=O)N[C@@H](Cc1ccccc1)C(=O)N[C@]1(C)CCCCCCC=CCCC[C@@](C)(C(=O)N[C@@H](C)C(=O)N[C@@H](C)C(=O)N[C@@H](C)C(=O)N[C@@H](C)C(=O)N[C@@H](C)C(=O)N[C@H](C)C(N)=O)NC(=O)[C@H](CC(C)C)NC(=O)[C@H](CCC(N)=O)NC(=O)[C@H](C)NC(=O)[C@H](Cc2c[nH]c3ccccc23)NC(=O)[C@H](Cc2ccc(O)cc2)NC(=O)[C@H](CCC(=O)O)NC1=O)[C@@H](C)O [compound 596] ({Benzoyl(4-F)}-LTF[R8]EYWAQL[S5]AAAAA[dA]-NH2; staple 4-11) | – | – | < 10 | 10 to 100
CC(=O)N[C@@H](CC(C)C)C(=O)N[C@H](C(=O)N[C@@H](Cc1ccccc1)C(=O)N[C@]1(C)CCCCCCC=CCCC[C@@](C)(C(=O)N[C@@H](C)C(=O)N[C@@H](C)C(=O)N[C@@H](C)C(=O)N[C@@H](C)C(=O)N[C@@H](C)C(=O)N[C@H](C)C(N)=O)NC(=O)[C@H](CC(C)C)NC(=O)[C@H](CCC(N)=O)NC(=O)[C@H](C)NC(=O)[C@H](Cc2c[nH]c3ccccc23)NC(=O)[C@H](Cc2ccc(O)cc2)NC(=O)[C@H](CCCNC(=N)N)NC1=O)[C@@H](C)O [compound 598] (Ac-LTF[R8]RYWAQL[S5]AAAAA[dA]-NH2; staple 4-11) | – | – | < 10 | 10 to 100
CC(=O)N[C@@H](CC(C)C)C(=O)N[C@H](C(=O)N[C@@H](Cc1ccccc1)C(=O)N[C@]1(C)CCCCCCC=CCCC[C@@](C)(C(=O)N[C@@H](C)C(=O)N[C@@H](C)C(=O)N[C@@H](C)C(=O)N[C@@H](C)C(=O)N[C@@H](C)C(=O)N[C@H](C)C(N)=O)NC(=O)[C@H](CC(C)C)NC(=O)[C@H](CCC(N)=O)NC(=O)[C@H](C)NC(=O)[C@H](Cc2c[nH]c3ccccc23)NC(=O)[C@H](Cc2ccc(O)cc2)NC(=O)[C@H](CCC(N)=O)NC1=O)[C@@H](C)O [compound 600] (Ac-LTF[R8]QYWAQL[S5]AAAAA[dA]-NH2; staple 4-11) | – | – | < 10 | < 10

Now from value to compound, other results behind:

Ki ([1]; read-out: Ki (MDM2)) [nM] | Ki ([2]; read-out: Ki (MDMX)) [nM] | SMILES | Ki ([1]; Ki (MDM2)) [nM] | Ki ([2]; Ki (MDMX)) [nM]
10 to 100 | 10 to 100 | CC(=O)N[C@@H](CC(C)C)C(=O)N[C@H](C(=O)N[C@@H](Cc1ccccc1)C(=O)N[C@]1(C)CCCCCC/C=C/CCC[C@@](C)(C(=O)N[C@@H](C)C(=O)NC(C)(C)C(=O)N[C@@H](C)C(=O)N[C@@H](C)C(=O)N[C@@H](C)C(=O)N[C@H](C)C(N)=O)NC(=O)[C@H](CC(C)C)NC(=O)[C@H](CCC(N)=O)NC(=O)[C@H](C)NC(=O)[C@H](Cc2c[nH]c3ccccc23)NC(=O)[C@H](Cc2ccc(O)cc2)NC(=O)[C@H](CCC(=O)O)NC1=O)[C@@H](C)O [compound 562] (Ac-LTF[R8]EYWAQL[S5]A[Aib]AAA[dA]-NH2; staple (E) 4-11) | – | –
10 to 100 | 10 to 100 | CC(=O)N[C@@H](CC(C)C)C(=O)N[C@H](C(=O)N[C@@H](Cc1ccccc1)C(=O)N[C@]1(C)CCCCCCC=CCCC[C@@](C)(C(=O)N[C@@H](C)C(=O)N[C@@H](C)C(=O)NC(C)(C)C(=O)N[C@@H](C)C(=O)N[C@@H](C)C(=O)N[C@H](C)C(N)=O)NC(=O)[C@H](CC(C)C)NC(=O)[C@H](CCC(N)=O)NC(=O)[C@H](C)NC(=O)[C@H](Cc2c[nH]c3ccccc23)NC(=O)[C@H](Cc2ccc(O)cc2)NC(=O)[C@H](CCC(=O)O)NC1=O)[C@@H](C)O [compound 563] (Ac-LTF[R8]EYWAQL[S5]AA[Aib]AA[dA]-NH2; staple 4-11) | – | –
< 10 | 10 to 100 | CC(=O)N[C@@H](CC(C)C)C(=O)N[C@H](C(=O)N[C@@H](Cc1ccccc1)C(=O)N[C@]1(C)CCCCCCC=CCCC[C@@](C)(C(=O)N[C@@H](C)C(=O)N[C@@H](C)C(=O)N(C)CC(=O)N[C@@H](C)C(=O)N[C@@H](C)C(=O)N[C@H](C)C(N)=O)NC(=O)[C@H](CC(C)C)NC(=O)[C@H](CCC(N)=O)NC(=O)[C@H](C)NC(=O)[C@H](Cc2c[nH]c3ccccc23)NC(=O)[C@H](Cc2ccc(O)cc2)NC(=O)[C@H](CCC(=O)O)NC1=O)[C@@H](C)O [compound 575] (Ac-LTF[R8]EYWAQL[S5]AA[Sar]AA[dA]-NH2; staple 4-11) | – | –
< 10 | 10 to 100 | CC(=O)N[C@@H](CC(C)C)C(=O)N[C@H](C(=O)N[C@@H](Cc1ccccc1)C(=O)N[C@]1(C)CCCCCCC=CCCC[C@@](C)(C(=O)N[C@@H](C)C(=O)N[C@@H](C)C(=O)N[C@@H](C)C(=O)N(C)CC(=O)N[C@@H](C)C(=O)N[C@H](C)C(N)=O)NC(=O)[C@H](CC(C)C)NC(=O)[C@H](CCC(N)=O)NC(=O)[C@H](C)NC(=O)[C@H](Cc2c[nH]c3ccccc23)NC(=O)[C@H](Cc2ccc(O)cc2)NC(=O)[C@H](CCC(=O)O)NC1=O)[C@@H](C)O [compound 576] (Ac-LTF[R8]EYWAQL[S5]AAA[Sar]A[dA]-NH2; staple 4-11) | – | –
< 10 | 10 to 100 | CC(=O)N[C@@H](CC(C)C)C(=O)N[C@H](C(=O)N[C@@H](Cc1ccccc1)C(=O)N[C@]1(C)CCCCCCC=CCCC[C@@](C)(C(=O)N[C@@H](C)C(=O)N[C@@H](C)C(=O)N[C@@H](C)C(=O)N[C@@H](C)C(=O)N(C)CC(=O)N[C@H](C)C(N)=O)NC(=O)[C@H](CC(C)C)NC(=O)[C@H](CCC(N)=O)NC(=O)[C@H](C)NC(=O)[C@H](Cc2c[nH]c3ccccc23)NC(=O)[C@H](Cc2ccc(O)cc2)NC(=O)[C@H](CCC(=O)O)NC1=O)[C@@H](C)O [compound 577] (Ac-LTF[R8]EYWAQL[S5]AAAA[Sar][dA]-NH2; staple 4-11) | – | –
10 to 100 | 10 to 100 | CC(=O)N[C@@H](CC(C)C)C(=O)N[C@H](C(=O)N[C@@H](Cc1ccccc1)C(=O)N[C@]1(C)CCCCCCC=CCCC[C@@](C)(C(=O)N[C@@H](C)C(=O)N[C@@H](C)C(=O)N[C@@H](C)C(=O)N[C@@H](C)C(=O)N[C@H](C)C(N)=O)NC(=O)[C@H](CC(C)C)NC(=O)[C@H](CCC(N)=O)NC(=O)[C@H](C)NC(=O)[C@H](Cc2c[nH]c3ccccc23)NC(=O)[C@H](Cc2ccc(O)cc2)NC(=O)[C@H](CCC(=O)O)NC1=O)[C@@H](C)O [compound 585] (Ac-LTF[R8]EYWAQL[S5]AAAA[dA]-NH2; staple 4-11) | – | –
